The test system of data set [1] is Candida albicans ATTC 90028. The experiment in a line: Antifungal susceptibility testing, Candida albicans. Format: cell-based. The method in brief:
(§1)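 Modified NCCLS broth microdilution, samples serially diluted from 20 μg/mL top concentration, inocula per 0.5 McFarland (C. albicans in SDB or RPMI 1640; C. neoformans in SDB; A. fumigatus in YM broth or RPMI-1640 + 5% Alamar Blue). IC50 from percent growth versus concentration; MIC read visually as lowest concentration without detectable growth.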

Data set [2] relates to Cryptococcus neoformans ATCC 90113. The experiment in a line: Antifungal susceptibility testing, Cryptococcus neoformans. It is filed as cell-based. The method in brief: as §1
The test system of data set [3] is Aspergillus fumigatus ATCC 90906. The experiment in a line: Antifungal susceptibility testing, Aspergillus fumigatus. Format: cell-based. To be noted: for IC50: ATCC90906, read-out: A fu IC50. In outline:
as §1

The test system of data set [4] is MRSA. Nature of the data set: Antibacterial susceptibility testing, MRSA. Format: cell-based, methicillin resistant Staphylococcus aureus. In outline: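 Each plate carried growth (saline only), solvent and blank (media only) controls, and Ciprofloxacin was the drug control. Plates were read before and after final incubation. MIC, the lowest concentration showing no detectable growth, was judged visually, and IC50 was obtained by plotting percent growth against concentration.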

In data set [5] the test system is Vero Cells. Nature of the data set: Cytotoxicity, Vero cells. Format: cell-based.
[6] abbreviates: ATTC90028, Table 2, read-out: Ca IC50.
Where [7] appears, read: ATTC90028, Table 2, read-out: Ca MFC.
Setting [8] is: ATTC90028, Table 2, read-out: Ca MIC.
Setting [9] is: ATCC90113, Table 2, read-out: Cn IC50.
Setting [10] is: ATCC90113, Table 2, read-out: Cn MFC.
Where [11] appears, read: ATCC90113, Table 2, read-out: Cn MIC.
[12] abbreviates: Staphylococcus aureus, Table 2, read-out: MRSA IC50.
Setting [13] is: Staphylococcus aureus, Table 2, read-out: MRSA MIC.

Each structure is given as a SMILES string. Structures can show the parent of a compound that is named as a salt. Where two headings read alike, the source gives them in different places.

Results on eleven compounds are retold here after patent US8288410B2, “3-substituted quinolinium and 7H-indolo[2,3-c]quinolinium salts as new antiinfectives” (Florida Agricultural and Mechanical University, priority 2008, dated 2012).

One may read the melting point as the temperature, or range, at which the solid turns liquid. Compound `FC(F)(F)c1ccccc1Sc1cc2ccccc2[n+](CCCCCc2ccccc2)c1.[I-]` registered a melting point of 227 to 229 °C.
The same measure, in the same setting: next, `c1ccc(Nc2cc3ccccc3[n+](CCCCCC3CCCCC3)c2)cc1` (as salt: iodide) [JRE-3-19-1]: 156 to 158 °C.
What is called IC50 is the concentration that gives 50% inhibition. A word on the MIC: it is the smallest concentration in the dilution series that meets the test's criterion for growth inhibition. Compound `Clc1ccc(Nc2cc3ccccc3[n+](CCCCCc3ccccc3)c2)cc1` [JRE-2-89-1] came in with a melting point of 182 to 183 °C. For the same compound, the IC50 in data set [1] (setting [6]) turned out to be 15 µg/mL. Further, the MFC in data set [1] (setting [7]) was more than 20 µg/mL. In addition, the MIC in data set [1] (setting [8]) came out at 50 µg/mL. Further, the IC50 in data set [2] (setting [9]) amounted to 4 µg/mL. Further, the MFC in data set [2] (setting [10]) is 13 µg/mL. Moreover, in data set [2] (setting [11]), the MIC was 6.3 µg/mL. Besides, in data set [3], the “A fu MIC” value amounted to 50 µg/mL. Besides, in data set [3] (Table 2, Aspergillus fumigatus), the IC50 came to 10 µg/mL. Moreover, in data set [4] (setting [12]), the IC50 amounted to 1.5 µg/mL. Besides, the MIC in data set [4] (setting [13]) is 3.1 µg/mL. For the same compound, the “TC50 Vero Cells” value in data set [5] (Table 2) was more than 25 µg/mL.
Regarding `C[n+]1cc(N(CCCCCC2CCCCC2)c2ccc(OC(F)(F)F)cc2)cc2ccccc21.[I-]` [JRE-3-99-1], in data set [1] (Table 2), the “Ca IC50” value was 0.45 µg/mL, the “Ca MFC” value came out at 10 µg/mL and the “Ca MIC” value is 1.3 µg/mL. In data set [2] (Table 2), the “Cn IC50” value came out at 0.70 µg/mL, the “Cn MFC” value turned out to be 1.3 µg/mL and the “Cn MIC” value turned out to be 1.3 µg/mL. For the same compound, in data set [3], the “A fu MFC” value was found to be 2.5 µg/mL and the “A fu MIC” value came out at 2.5 µg/mL. Further, the “A fu IC50” value in data set [3] (Table 2, Aspergillus fumigatus) stood at 0.95 µg/mL. For the same compound, in data set [4] (Table 2), the “MRSA IC50” value amounted to 0.65 µg/mL, the “MRSA MFC” value amounted to 1.3 µg/mL and the “MRSA MIC” value was 1.3 µg/mL. Moreover, the “TC50 Vero Cells” value in data set [5] (Table 2) is more than 10 µg/mL.
For the compound `C[n+]1cc2c(c3ccccc3n2CCCCCC2CCCCC2)c2ccccc21.[I-]` [JRE-3-100-1], in data set [1] (Table 3), the “Ca IC50” value stood at 0.80 µg/mL, the “Ca MFC” value is 10 µg/mL and the “Ca MIC” value came to 2.5 µg/mL. Moreover, in data set [2] (Table 3), the “Cn IC50” value is 1.5 µg/mL, the “Cn MFC” value was determined as 5.0 µg/mL and the “Cn MIC” value stood at 2.5 µg/mL. Also, in data set [3], the “A fu MFC” value was 10 µg/mL and the “A fu MIC” value was determined as 5.0 µg/mL. In data set [3] (Table 3, Aspergillus fumigatus), the “A fu IC50” value turned out to be 3.5 µg/mL. In addition, in data set [4] (Table 3), the “MRSA IC50” value is 0.70 µg/mL, the “MRSA MFC” value was found to be 1.3 µg/mL and the “MRSA MIC” value is 1.3 µg/mL. Further, the “TC50 Vero Cells” value in data set [5] (Table 3) is more than 10 µg/mL.
The compound `C[n+]1cccc(N(CCCCCC2CCCCC2)c2ccccc2)c1` [JRE-4-1-1] yielded a melting point of 124 to 125 °C. The IC50 in data set [1] (setting [6]) was 3.5 µg/mL. Further, in data set [1] (setting [7]), the MFC is more than 20 µg/mL. In addition, the MIC in data set [1] (setting [8]) amounted to 10 µg/mL. In data set [2] (setting [9]), the IC50 is 1.5 µg/mL. Moreover, the MFC in data set [2] (setting [10]) was determined as 5 µg/mL. Further, in data set [2] (setting [11]), the MIC was 2.5 µg/mL. For the same compound, in data set [3], the “A fu MFC” value was 1.3 µg/mL and the “A fu MIC” value was found to be 1.3 µg/mL. For the same compound, the IC50 in data set [3] (Table 2, Aspergillus fumigatus) is 0.9 µg/mL. For the same compound, the IC50 in data set [4] (setting [12]) is 1.5 µg/mL. Moreover, the minimum inhibitory concentration (MIC) in data set [4] (setting [13]) was 5 µg/mL. Further, the “TC50 Vero Cells” value in data set [5] (Table 2) was 8.3 µg/mL.
Turning to `C[n+]1cc(N(CCCCCC2CCCCC2)c2cccc(Cl)c2)cc2ccccc21.[I-]` [JRE-4-3-1], in data set [1] (Table 2), the “Ca IC50” value came out at 0.90 µg/mL, the “Ca MFC” value was 10 µg/mL and the “Ca MIC” value came to 2.5 µg/mL. Further, in data set [2] (Table 2), the “Cn IC50” value came out at 0.85 µg/mL, the “Cn MFC” value stood at 5.0 µg/mL and the “Cn MIC” value worked out at 1.3 µg/mL. Further, in data set [3], the “A fu MFC” value was 10 µg/mL and the “A fu MIC” value is 2.5 µg/mL. For the same compound, the “A fu IC50” value in data set [3] (Table 2, Aspergillus fumigatus) is 1.0 µg/mL. Also, in data set [4] (Table 2), the “MRSA IC50” value is 0.80 µg/mL, the “MRSA MFC” value was 2.5 µg/mL and the “MRSA MIC” value was 1.3 µg/mL. The “TC50 Vero Cells” value in data set [5] (Table 2) was more than 10 µg/mL.
Consider `C[n+]1cc(N(CCCCCC2CCCCC2)c2ccc(Cl)cc2)cc2ccccc21.[I-]` [JRE-4-9-1], for which, in data set [1] (Table 2), the “Ca IC50” value worked out at 0.45 µg/mL, the “Ca MFC” value stood at 5.0 µg/mL and the “Ca MIC” value was 1.3 µg/mL. In data set [2] (Table 2), the “Cn IC50” value turned out to be 0.40 µg/mL, the “Cn MFC” value turned out to be 2.5 µg/mL and the “Cn MIC” value turned out to be 0.63 µg/mL. Also, in data set [3], the “A fu MFC” value came out at 10 µg/mL and the “A fu MIC” value was determined as 1.3 µg/mL. Further, the “A fu IC50” value in data set [3] (Table 2, Aspergillus fumigatus) worked out at 0.80 µg/mL. For the same compound, in data set [4] (Table 2), the “MRSA IC50” value is 0.40 µg/mL, the “MRSA MFC” value came out at 0.63 µg/mL and the “MRSA MIC” value is 0.63 µg/mL. In addition, the “TC50 Vero Cells” value in data set [5] (Table 2) amounted to 10 µg/mL.
`C[n+]1cc2c(c3cc(C(F)(F)F)ccc3n2CCCCCC2CCCCC2)c2ccccc21.[I-]` [JRE-4-17-1, 10-Trifluoromethyl-7-(5-cyclohexyl-pentyl)-5-methyl-7H-indolo[2,3-c]quinolin-5-ium iodide] showed a melting point of 231 to 233 °C. For the same compound, the IC50 in data set [1] (ATTC90028, Table 3, read-out: Ca IC50) worked out at 3.5 µg/mL. Moreover, the MFC in data set [1] (ATTC90028, Table 3, read-out: Ca MFC) stood at 10 µg/mL. For the same compound, the MIC in data set [1] (ATTC90028, Table 3, read-out: Ca MIC) stood at 5 µg/mL. Further, the IC50 in data set [2] (ATCC90113, Table 3, read-out: Cn IC50) came out at 3 µg/mL. Also, the MFC in data set [2] (ATCC90113, Table 3, read-out: Cn MFC) came to 5 µg/mL. Moreover, the MIC in data set [2] (ATCC90113, Table 3, read-out: Cn MIC) was 5 µg/mL. Moreover, in data set [3], the “A fu MFC” value was 10 µg/mL and the “A fu MIC” value was 10 µg/mL. Also, the IC50 in data set [3] (Table 3, Aspergillus fumigatus) was 3.5 µg/mL. The 50% inhibitory concentration (IC50) in data set [4] (Staphylococcus aureus, Table 3, read-out: MRSA IC50) worked out at 1.5 µg/mL. Besides, in data set [4] (Staphylococcus aureus, Table 3, read-out: MRSA MFC), the MFC was found to be 5 µg/mL. In addition, in data set [4] (Staphylococcus aureus, Table 3, read-out: MRSA MIC), the minimum inhibitory concentration (MIC) was determined as 2.5 µg/mL. For the same compound, the “TC50 Vero Cells” value in data set [5] (Table 3) was more than 10 µg/mL.
As to `C[n+]1cc2c(c3ccc(C(F)(F)F)cc3n2CCCCCC2CCCCC2)c2ccccc21.[I-]` [JRE-5-31-1], in data set [1] (Table 3), the “Ca IC50” value was found to be 0.80 µg/mL, the “Ca MFC” value is listed as “— ((-) = >20 μg/mL)” and the “Ca MIC” value was 1.3 µg/mL. Besides, in data set [2] (Table 3), the “Cn IC50” value turned out to be 0.85 µg/mL, the “Cn MFC” value was 2.5 µg/mL and the “Cn MIC” value turned out to be 1.3 µg/mL. Moreover, in data set [3], the “A fu MFC” value turned out to be 10 µg/mL and the “A fu MIC” value worked out at 5.0 µg/mL. In addition, the “A fu IC50” value in data set [3] (Table 3, Aspergillus fumigatus) was 1.5 µg/mL. Also, in data set [4] (Table 3), the “MRSA IC50” value worked out at 0.70 µg/mL, the “MRSA MFC” value came to 1.3 µg/mL and the “MRSA MIC” value turned out to be 1.3 µg/mL. Moreover, in data set [5] (Table 3), the “TC50 Vero Cells” value is more than 10 µg/mL.
For the compound `FC(F)(F)c1cccc(Sc2cc3ccccc3[n+](CCCCCc3ccccc3)c2)c1.[I-]` [XYZ-IV-54], in data set [1] (Table 1), the “Ca IC50” value stood at 6.0 µg/mL, the “Ca MFC” value is given as “— ((-) = >20 μg/mL)” and the “Ca MIC” value was found to be 10 µg/mL. Further, in data set [2] (Table 1), the “Cn IC50” value came to 1.5 µg/mL, the “Cn MFC” value is 20 µg/mL and the “Cn MIC” value was 2.5 µg/mL. Also, in data set [3] (Table 1, Aspergillus fumigatus), the “A fu IC50” value is 1.5 µg/mL, the “A fu MFC” value is “— ((-) = >20 μg/mL)” and the “A fu MIC” value is 5.0 µg/mL. In addition, in data set [4] (Table 1), the “MRS IC50” value stood at 0.85 µg/mL, the “MRS MFC” value was 10 µg/mL and the “MRS MIC” value was 2.5 µg/mL. The “TC50 Vero Cells” value in data set [5] (Table 1) was “NC (NC = Not toxic at 10 μg/mL)”.
